Molecules are shown by their SMILES.

By inhibition is commonly meant the share of the control response that was lost under treatment. The low end stands for little suppression, the high end for strong suppression.

The test system of this assay is Naegleria gruberi. In words: microbe, parasite or virus in culture. In kind it is functional. The conditions noted are these: NEG-M, CONC 10 uM.
Description: Growth inhibiting activity of Naegleria gruberi in vitro
`Cc1ccc2nc(C)c(-c3ccn(Cc4ccccc4)n3)n2c1`: the inhibition at 10 µM is recorded as 9.5% (not active). For `CCC(Sc1nc2ccccc2o1)C(=O)Nc1nnc(C)s1` (stereo unspecified), the inhibition at 10 µM is listed as 8.4% (not active). In the case of `O=C(COc1cccc(F)c1)Nc1nc(-c2ccccn2)cs1` it was 24.2% (not active). In the case of `COc1ccc(S(=O)(=O)Nc2ccc(CN3CCN(C(=O)c4cccc(C#N)c4)CC3)cc2)cc1` it was 18.8% (not active); in that of `Cc1cnc(N2CCN[C@@H](Cc3ccccc3)C2)nc1Oc1ccc(-n2ccnc2)cc1`, 9.8% (not active); in that of `COc1nc2ccc(Br)cc2cc1[C@@H](c1ccccc1)[C@@](O)(CCN(C)C)c1cccc2ccccc12` [BEDAQUILINE], 56.3% (not active). For the compound `O=C(Nc1cccc(-c2ccc(NCCCN3CCCC3)nc2)c1)c1ccccc1`, the inhibition at 10 µM is 8.2% (not active).

`Oc1c(I)cc(I)c2cccnc12` [IODOQUINOL]: the inhibition at 10 µM is given as 51.6% (not active). To `N=C(N)c1ccc(OCCCCCOc2ccc(C(=N)N)cc2)cc1` [PENTAMIDINE] belongs 43% (not active); to `O=C(Nc1nc(-c2ccccn2)cs1)C1CC1c1ccccc1F` (stereo unspecified), 46.3% (not active). For the compound `Nc1ncnc2c1ncn2C[C@@H](O)[C@@H](O)C(=O)O` [ERITADENINE], the inhibition at 10 µM is on record as 36.3% (not active). As for `C[C@@H]1[C@H](O)[C@@H](C)/C=C/C=C/C=C/C=C/C=C/C=C/C=C/[C@H](O[C@@H]2O[C@H](C)[C@@H](O)[C@H](N)[C@@H]2O)C[C@@H]2O[C@](O)(C[C@@H](O)C[C@@H](O)[C@H](O)CC[C@@H](O)C[C@@H](O)CC(=O)O[C@H]1C)C[C@H](O)[C@H]2C(=O)O` [AMPHOTERICIN B], the inhibition at 10 µM is reported as 2.4% (not active).

Turning to `Cc1cc(C)nc(-n2nc(C)cc2Nc2ccccc2)n1`, the inhibition at 10 µM is listed as 31.5% (not active).

As for `COc1cc(-c2cc(-c3ccc(S(C)(=O)=O)cc3)cnc2N)ccc1O`, the inhibition at 10 µM is 67.8% (not active).

Consider `CCc1nc2ccc(C(=O)NCc3ccc4c(c3)OCO4)cn2c1N(C)Cc1cccs1`, for which the inhibition at 10 µM is 36% (not active). To `CO[C@@H]1CN(c2ccc(C#CC3(O)CN4CCC3CC4)c(Cc3ccccc3)n2)C[C@H]1O` (stereo partly specified) belongs 0% (not active). On to `O=C(Nc1nnc(S)s1)c1cc(Br)ccc1Cl`, for which the inhibition at 10 µM is listed as 11.5% (not active). To `Cc1cccc(Cn2ccc(NC(=O)c3ccc4c(c3)OCO4)n2)c1` belongs 59.7% (not active). As to `CC(=O)NC[C@H]1CN(c2ccc(N3CCSCC3)c(F)c2)C(=O)O1` [SUTEZOLID], the inhibition at 10 µM is given as 45.7% (not active). In the case of `COc1ccc(Cn2cnc3c(-c4ccco4)nc(Cl)nc32)cc1` it was 36.9% (not active). Consider `Nc1ccc(C(=O)Nc2ccc(-c3nc4ccccc4o3)cc2)cc1`, for which the inhibition at 10 µM is listed as 6.1% (not active). To `CC1COC(Cn2cncn2)(c2ccc(Oc3ccc(Cl)cc3)cc2Cl)O1` (stereo unspecified) [DIFENOCONAZOLE] belongs 73.3% (not active); to `Cc1ccc(S(=O)(=O)N2CCN(C(=O)c3cc(-c4ccccc4)n[nH]3)CC2)cc1`, 22.3% (not active); to `CS(=O)(=O)Cc1nc2ccccc2oc1=O`, 38.8% (not active).

On to `Cc1ccc2cc(C3NC(=O)c4ccccc4N3)c(Cl)nc2c1` (stereo unspecified), for which the inhibition at 10 µM is 46.1% (not active). Turning to `Cc1nnc(NC(=O)c2cn(-c3ccccc3)nc2-c2ccccc2C)o1`, the inhibition at 10 µM is listed as 34.7% (not active). In the case of `NCC(=O)N1CCn2c(nc(-c3ccccc3)c2Nc2ccc3c(c2)OCO3)C1` it was 8.3% (not active); in that of `Cc1nn2c(O)c3c(nc2c1-c1ccc(F)cc1)CCCC3`, 30.1% (not active); in that of `CS(=O)(=O)c1ccc(C(=O)N(CC2CCCO2)c2nc3ccccc3s2)cc1[N+](=O)[O-]` (stereo unspecified), 58.7% (not active). In the case of `O=C(Nc1cccnc1)c1c(O)c2cccc3c2n(c1=O)CC3` it was 40.3% (not active); in that of `O=C([C@@H](c1ccc(Cl)cc1)c1cccnc1)N1CCN(c2ccc(C(F)(F)F)cc2)CC1`, 75.6% (not active); in that of `Cc1cc(OCC(=O)NCc2ccccc2)c2cc(Br)ccc2n1`, 22.1% (not active).

As to `COC(=O)c1c(NC(=O)c2cc3ccccc3oc2=O)sc2c1CCN(Cc1ccccc1)C2`, the inhibition at 10 µM is 17.2% (not active). In the case of `Nc1ncnc2c1c(-c1cnc3ccccc3c1)nn2CC1CCNCC1`, the inhibition at 10 µM was 4.9% (not active). In the case of `Cc1cc(OCC(=O)Nc2ccc(C(C)C)cc2)n(C)c(=O)c1C#N` it was 18.6% (not active). For the compound `Clc1ccc(-n2cc(COc3ccnc4ccccc34)nn2)cc1`, the inhibition at 10 µM is given as 75.2% (not active).

With `CN1CCN(c2nccc3[nH]c(-c4cccc(F)c4)cc23)CC1`, the inhibition at 10 µM is recorded as 0% (not active). For `CS(=O)(=O)c1ccccc1C(=O)N(Cc1ccccc1)c1ccccc1`, the inhibition at 10 µM is listed as 31.8% (not active). To `CNC(=O)c1nn(C)c2c1C(C)(C)Cc1cnc(Nc3ccc(N4CCN(C)CC4)cc3)nc1-2` [MILCICLIB] belongs 18.3% (not active); to `C[C@H](C(N)=O)N1CCCC[C@H]1c1ccc(OCc2cccc(F)c2)cc1`, 15.8% (not active); to `CC(=O)Nc1ccc(-c2noc(CC3CCCN(Cc4cccc(F)c4C)C3)n2)cc1` (stereo unspecified), 37.2% (not active). For `CCCNC(=O)N1CCC2(CC1)CC(=O)c1cc(C)ccc1O2`, the inhibition at 10 µM is 11.6% (not active). To `COc1ccc2nc(C)cc(OCC(=O)Nc3ccccc3OC)c2c1` belongs 34.9% (not active); to `Cc1nn2c(=O)c3c([nH]c2c1-c1ccc(Cl)cc1)CCCC3`, 30.5% (not active). In the case of `COc1ccc(Cl)cc1NC(=O)CN(C)C(=O)c1cnn(-c2ccccc2)n1` it was 37.1% (not active); in that of `O=C(CN1CCOCC1)Nc1ccc2ncnc(Nc3ccc(OCc4cccc(F)c4)c(Cl)c3)c2c1`, 17% (not active). In the case of `COc1ccc(C(=N)N)cc1-c1cn(-c2ccc(C(=N)N)cc2)nn1` it was 22.8% (not active); in that of `CC1(C)Cc2c(c(N3CCOCC3)nc3snc(Br)c23)CO1`, 0% (not active). Turning to `COC(=O)c1cccc2oc(-c3cccc(OC)c3NC(=O)c3cc(-c4ccccc4)on3)nc12`, the inhibition at 10 µM is given as 69.8% (not active). To `FC(F)(F)c1cc(NCCc2ccccc2)nc(-c2ccccn2)n1` belongs 24.6% (not active).

As to `O=C(NCc1ccoc1)N1CCN(Cc2ccc3c(c2)OCO3)CC1`, the inhibition at 10 µM is reported as 28.7% (not active). To `CC(C)(C)n1nc(-c2ccccc2)c2c(N)ncnc21` belongs 55.1% (not active); to `Nc1ncc(Br)cc1-c1nc2cc(Cl)cnc2[nH]1`, 15.3% (not active); to `COc1cc(C(F)(F)F)nc2ccc(C)c(N)c12`, 2.1% (not active). To `COc1ccc(CN2CCOc3ccc(C(C)(O)CN(C)C)cc3C2)cc1C` (stereo unspecified) belongs 26.3% (not active); to `Cc1cccc(NC(=O)c2cc(S(=O)(=O)N(C)c3ccc(F)cc3)ccc2Cl)n1`, 42.3% (not active).

These data come from ChEMBL document CHEMBL4513101, “Naegleria gruberi Pathogen Box compounds screening” (2021).
